Values after ≈ are worked out from the molar mass of the structure shown.
What was measured:
Format in all cases: functional
Candida albicans [1] = experiment: Antifungal activity against Candida albicans by broth microdilution method
Sporothrix schenckii = experiment: Antifungal activity against Sporothrix schenckii by broth microdilution method
[2] = test system: Trichophyton mentagrophytes; experiment: Antifungal activity against Trichophyton mentagrophytes by broth microdilution method
Candida parapsilosis [3] = experiment: Ratio of 2-chloro-3-(4-hydroxyphenylamino)naphthalene-1,4-dione MIC50 to compound MIC50 for Candida parapsilosis
Cryptococcus neoformans [4] = experiment: Antifungal activity against Cryptococcus neoformans by broth microdilution method
Klebsiella pneumoniae = experiment: Antibacterial activity against Klebsiella pneumoniae ATCC 27736 by micro-broth dilution method
Candida albicans [5] = experiment: Ratio of miconazole MIC50 to compound MIC50 for Candida albicans
Escherichia coli = experiment: Antibacterial activity against Escherichia coli by micro-broth dilution method
Candida parapsilosis [6] = experiment: Ratio of 2-Chloro-3-phenylsulfanyl-[1,4]naphthoquinone MIC50 to compound MIC50 for Candida parapsilosis
Staphylococcus aureus = experiment: Antibacterial activity against Staphylococcus aureus ATCC 25923 by micro-broth dilution method
Candida parapsilosis [7] = experiment: Antifungal activity against Candida parapsilosis by broth microdilution method; settings: Lodderomyces parapsilosis
Aspergillus fumigatus = experiment: Antifungal activity against Aspergillus fumigatus by broth microdilution method
Pseudomonas aeruginosa = experiment: Antibacterial activity against Pseudomonas aeruginosa by micro-broth dilution method
[8] = test system: Trichophyton mentagrophytes; experiment: Ratio of amphotericin-B MIC50 to compound MIC50 for Trichophyton mentagrophytes
[9] = test system: Trichophyton mentagrophytes; experiment: Ratio of fluconazole MIC50 to compound MIC50 for Trichophyton mentagrophytes
Cryptococcus neoformans [10] = experiment: Ratio of miconazole MIC50 to compound MIC50 for Cryptococcus neoformans

Row | Molecule | MIC (Candida albicans [1]) [µg/mL] | MIC (Sporothrix schenckii) [µg/mL] | MIC [2] [µg/mL] | Ratio (Candida parapsilosis [3]) | MIC (Cryptococcus neoformans [4]) [µg/mL] | MIC (Klebsiella pneumoniae) [µg/mL] | Ratio (Candida albicans [5]) | MIC (Escherichia coli) [µg/mL] | Ratio (Candida parapsilosis [6]) | MIC (Staphylococcus aureus) [µg/mL] | MIC (Candida parapsilosis [7]) [µg/mL] | MIC (Aspergillus fumigatus) [µg/mL] | MIC (Pseudomonas aeruginosa) [µg/mL] | Ratio [8] | Ratio [9] | Ratio (Cryptococcus neoformans [10])
1 | Cc1cc2c(cc1OC1=C(O)C(=O)c3ccccc3C1=O)C(=O)c1ccccc1C2=O [NEWBOULDIAQUINONE A] | 4.88 (≈ 11.9 µM) |  |  |  |  |  |  |  |  |  |  |  |  |  |  | 
2 | O=c1c2oc3ccccc3oc=2c(=O)c2ccccc12 | 6.25 (≈ 23.7 µM) | 0.78 (≈ 2.95 µM) | 1.56 (≈ 5.9 µM) | 2 | 12.5 (≈ 47.3 µM) | > 50 | 4 | 50 (≈ 189 µM) | 2 | 25 (≈ 94.6 µM) | 3.12 (≈ 11.8 µM) | 25 (≈ 94.6 µM) | > 50 |  |  | 
3 | O=C1C(Cl)=C(Oc2ccc3ccccc3c2)C(=O)c2ccccc21 | > 50 | > 50 | 50 (≈ 149 µM) |  | > 50 | > 50 |  | > 50 |  | > 50 | > 50 | 50 (≈ 149 µM) | > 50 |  |  | 
4 | Clc1ccc(COC(Cn2ccnc2)c2ccc(Cl)cc2Cl)c(Cl)c1 (stereo unspecified) [MICONAZOLE] | 25 (≈ 60.1 µM) |  | < 0.78 |  | 12.5 (≈ 30 µM) |  |  |  |  |  |  | 12.5 (≈ 30 µM) |  |  |  | 
5 | NC[C@H]1O[C@H](O[C@H]2[C@H](O)[C@@H](O[C@H]3O[C@H](CO)[C@@H](O)[C@H](N)[C@H]3O)[C@H](N)C[C@@H]2N)[C@H](N)C[C@@H]1O [TOBRAMYCIN] |  |  |  |  |  | 4 (≈ 8.56 µM) |  | 0.5 (≈ 1.07 µM) |  | 0.25 (≈ 0.535 µM) |  |  | 1 (≈ 2.14 µM) |  |  | 
6 | NC[C@H]1O[C@H](O[C@H]2[C@H](O)[C@@H](O[C@H]3O[C@H](CO)[C@@H](O)[C@H](N)[C@H]3O)[C@H](N)C[C@@H]2N)[C@H](O)[C@@H](O)[C@@H]1O [KANAMYCIN] |  |  |  |  |  | > 128 |  | 16 (≈ 33 µM) |  | 2 (≈ 4.13 µM) |  |  | 32 (≈ 66 µM) |  |  | 
7 | Cc1ccc(OC2=C(Sc3ccc(C)cc3)C(=O)c3ccccc3C2=O)cc1 | 25 (≈ 64.7 µM) | 3.12 (≈ 8.07 µM) | 1.56 (≈ 4.04 µM) |  | 12.5 (≈ 32.3 µM) | > 50 |  | > 50 |  | 12.5 (≈ 32.3 µM) | 25 (≈ 64.7 µM) | > 50 | > 50 |  |  | 
8 | OC(Cn1cncn1)(Cn1cncn1)c1ccc(F)cc1F [FLUCONAZOLE] | 1 (≈ 3.27 µM) | 2 (≈ 6.53 µM) | 1.56 (≈ 5.09 µM) |  | 0.5 (≈ 1.63 µM) |  |  |  |  |  | 1 (≈ 3.27 µM) | 2 (≈ 6.53 µM) |  |  |  | 
9 | C[C@@H]1[C@H](O)[C@@H](C)/C=C/C=C/C=C/C=C/C=C/C=C/C=C/[C@H](O[C@@H]2O[C@H](C)[C@@H](O)[C@H](N)[C@@H]2O)C[C@@H]2O[C@](O)(C[C@@H](O)C[C@@H](O)[C@H](O)CC[C@@H](O)C[C@@H](O)CC(=O)O[C@H]1C)C[C@H](O)[C@H]2C(=O)O [AMPHOTERICIN B] | 0.39 (≈ 0.422 µM) |  | 1.56 (≈ 1.69 µM) |  | 0.78 (≈ 0.844 µM) |  |  |  |  |  |  |  |  |  |  | 
10 | Cc1ccc(OC2=C(Sc3ccccc3)C(=O)c3ccccc3C2=O)cc1 | 25 (≈ 67.1 µM) | 1.56 (≈ 4.19 µM) | 0.78 (≈ 2.09 µM) |  | 12.5 (≈ 33.6 µM) | > 50 |  | > 50 |  | 25 (≈ 67.1 µM) | 12.5 (≈ 33.6 µM) | > 50 | > 50 | 2 | 2 | 
11 | O=C1C(Cl)=C(Oc2ccccc2)C(=O)c2ccccc21 | 12.5 (≈ 43.9 µM) | 3.12 (≈ 11 µM) | 0.78 (≈ 2.74 µM) |  | 6.25 (≈ 22 µM) | > 50 |  | > 50 |  | 50 (≈ 176 µM) | 12.5 (≈ 43.9 µM) | 50 (≈ 176 µM) | > 50 | 2 | 2 | 2
12 | GENTAMICIN |  |  |  |  |  | 0.78 |  | 0.18 |  | 0.78 |  |  | 0.39 |  |  | 
13 | O=C1C=C(Sc2ccccc2)C(=O)c2ccccc21 | 12.5 (≈ 46.9 µM) |  | 0.78 (≈ 2.93 µM) |  | 1.56 (≈ 5.86 µM) |  |  |  |  |  |  | 25 (≈ 93.9 µM) |  |  |  | 
14 | NCC[C@H](O)C(=O)N[C@@H]1C[C@H](N)[C@@H](O[C@H]2O[C@H](CN)[C@@H](O)[C@H](O)[C@H]2O)[C@H](O)[C@H]1O[C@H]1O[C@H](CO)[C@@H](O)[C@H](N)[C@H]1O [AMIKACIN] |  |  |  |  |  | 2 (≈ 3.42 µM) |  | 1 (≈ 1.71 µM) |  | 16 (≈ 27.3 µM) |  |  | 1 (≈ 1.71 µM) |  |  | 
15 | O=C1C(Cl)=C(Oc2cccc3ccccc23)C(=O)c2ccccc21 | 12.5 (≈ 37.3 µM) | 1.56 (≈ 4.66 µM) | 1.56 (≈ 4.66 µM) |  | 25 (≈ 74.7 µM) | > 50 | 2 | 50 (≈ 149 µM) |  | 25 (≈ 74.7 µM) | 12.5 (≈ 37.3 µM) | > 50 | > 50 |  |  | 
16 | NYSTATIN | 7.8 | 13.2 |  |  | 3.5 |  |  |  |  |  |  |  |  |  |  | 
17 | O=C1C(Cl)=C(Nc2ccc(O)cc2)C(=O)c2ccccc21 | 1.56 (≈ 5.2 µM) | 1.56 (≈ 5.2 µM) | 1.56 (≈ 5.2 µM) |  | 0.78 (≈ 2.6 µM) |  |  |  |  |  | 6.25 (≈ 20.9 µM) | 3.12 (≈ 10.4 µM) |  |  |  | 
18 | O=C1C(Cl)=C(Oc2ccccc2OC2=C(Cl)C(=O)c3ccccc3C2=O)C(=O)c2ccccc21 | 50 (≈ 102 µM) | 25 (≈ 50.9 µM) | 50 (≈ 102 µM) |  | > 50 | > 50 |  | > 50 |  | > 50 | 50 (≈ 102 µM) | > 50 | > 50 |  |  | 
19 | COc1ccc(OC2=C(Cl)C(=O)c3ccccc3C2=O)cc1 | 12.5 (≈ 39.7 µM) | 1.56 (≈ 4.96 µM) | 1.56 (≈ 4.96 µM) |  | 12.5 (≈ 39.7 µM) | > 50 | 2 | > 50 |  | 50 (≈ 159 µM) | 6.25 (≈ 19.9 µM) | 50 (≈ 159 µM) | > 50 |  |  | 
20 | Cc1ccc(OC2=C(Cl)C(=O)c3ccccc3C2=O)cc1 | 6.25 (≈ 20.9 µM) | 0.78 (≈ 2.61 µM) | 1.56 (≈ 5.22 µM) | 2 | 12.5 (≈ 41.8 µM) | > 50 | 4 | 25 (≈ 83.7 µM) | 2 | 12.5 (≈ 41.8 µM) | 3.12 (≈ 10.4 µM) | 25 (≈ 83.7 µM) | > 50 |  |  | 
21 | Cc1ccc(OC2=C(Nc3ccccc3)C(=O)c3ccccc3C2=O)cc1 | 12.5 (≈ 35.2 µM) | 1.56 (≈ 4.39 µM) | 0.78 (≈ 2.19 µM) |  | 12.5 (≈ 35.2 µM) | > 50 |  | 50 (≈ 141 µM) |  | 50 (≈ 141 µM) | 12.5 (≈ 35.2 µM) | 50 (≈ 141 µM) | > 50 | 2 | 2 | 
22 | Cc1cc(C)cc(OC2=C(Cl)C(=O)c3ccccc3C2=O)c1 | 12.5 (≈ 40 µM) | 1.56 (≈ 4.99 µM) | 1.56 (≈ 4.99 µM) | 2 | 12.5 (≈ 40 µM) | > 50 |  | 50 (≈ 160 µM) | 2 | 25 (≈ 79.9 µM) | 3.12 (≈ 9.98 µM) | 50 (≈ 160 µM) | > 50 |  |  | 
23 | O=C1C(Cl)=C(Oc2ccc(Cl)cc2)C(=O)c2ccccc21 | 12.5 (≈ 39.2 µM) | 1.56 (≈ 4.89 µM) | 1.56 (≈ 4.89 µM) |  | 12.5 (≈ 39.2 µM) | > 50 | 2 | > 50 |  | 50 (≈ 157 µM) | 6.25 (≈ 19.6 µM) | > 50 | > 50 |  |  | 

From ChEMBL document CHEMBL1909533, “Micelles catalyzed chemoselective synthesis 'in water' and biological evaluation of oxygen containing hetero-1,4-naphthoquinones as potential antifungal agents” (2011)
